{
  "source": "patent US12237054B2",
  "about": "“Model for high-throughput screening of endocrine disruptor and method for screening same” (Nanjing University, priority 2018, dated 2025)",
  "origin": "cited, not measured here",
  "test_system": "HEK293T",
  "conditions": "standardized Activity value, data from public databases (ToxCast/Tox21, ChEMBL)",
  "data": [
    {"smiles": "CC(C)C(=O)Nc1ccc([N+](=O)[O-])c(C(F)(F)F)c1", "note": "[Flutamide]", "values": [
      {"measurement": "cytotoxicity experimental value", "result": 4.4}
    ]}
  ]
}
